# Patent publication US20080312271A1, “AZABENZIMIDAZOLYL COMPOUNDS” (Pfizer Inc., priority 2006, published 2008)
# Target: T1, mGluR2 receptor (metabotropic glutamate receptor 2) (Homo sapiens, UniProt Q14416)
# T1 construct: expressed in transfected cells
# Experiment: mGluR2 Potentiator Screen, FLIPR, EC10-EC20 glutamate challenge
# Assay type: cell-based
# Conditions: not given
# Protocol: Procedure for mGluR2 Potentiator Screen NLB methods EC10-EC20 Challenge Cell Culture and Plating:
# Cells used for this screen are HEK cells stably transfected with the mGluR2 receptor (metabotropic glutamate receptor 2) and the Gα15 G protein. Clones were identified by functional activity (FLIPR). Cells are grown in growth media containing: DMEM High Glucose with Glutamine and Na Pyruvate (GIBCO), 10% (v/v) Heat inactivate FBS (GIBCO), G418 500 ug/ml (from 50 mg/ml stock) (GIBCO) and Blasticidin 3 ug/ml (from 5 mg/ml stock made in H2O) (Invitrogen).
# 2 days before the assay cell are trypsinized with 0.25% trysin/EDTA (GIBCO), spun down at 1000 rpm for 5 minutes, resuspended in growth media and plated on polystyrene 384 well black wall 1 clear bottom poly-D-lysine coated plates at a density of approximately 18,000 cells/well in a volume of 50 μL per well. One day before the assay the growth media is removed from the plates by flicking, and replaced with media containing DMEM High Glucose without Glutamine and Na Pyruvate (GIBCO) and 10% (v/v) dialyzed FBS (GIBCO). The reason for the removal of glutamine the day before the assay is to minimize the amount of glutamate that will be present during the assay, as endogenous glutarnate released from the cells can reduce the fluorescent response and interfere with the FLIPR screen.
# FLIPR Methods and Data Analysis:
# On the day of the assay, the FLIPR assay is performed using the following methods.
# The pH is adjusted to 7.4 with 1 M NaOH. Prepare a 2 mM (approx.) stock solution of Fluo-4,am (Molecular Probes) dye in DMSO-22 μl DMSO per 50 ug vial (440 μL per 1 mg vial). Make a 1 mM (approx.) flou-4, PA working solution per vial by adding 22 μl of 20% pluronic acid (PA), (Molecular Probes) in DMSO to each 50 ug vial (440 μL per 1 mg vial). Prepare a 250 mM Probenecid (Sigma) stock solution by dissolving 0.71 g into 5 ml 1N NaOH and 5 ml assay buffer (for each liter of assay wash buffer)L Make 4 uM (approx.) dye incubation media by adding […] per 11 ml DMEM high glucose without glutamine (220 ml per 1 mg vial). Add 110 μL probenecid stock per 11 ml (2.5 mM final [concentration]). To the dye media add 3 units/ml of glutamic-pyruvic transaminase (GPT, Sigma) and 3 mM Na Pyruvate. The assay has worked with dye concentrations from 2 uM to 8 uM dye as well. To the assay buffer from drug preparation, add 1.83 mls DMSO and 400 μL 15.8% P104 (from New Leads biology) per liter for final concentrations of 0.18% DMSO and 0.006% P104. To the assay buffer for cell washing, add probenecid in the same manner and concentration that was used for the dye media.
# Remove growth media from cell plates by flicking. Add 50 μl/well dye solution. Incubate 1 hour at 37° C. and 5% CO2. Remove dye solution and wash 3 times with assay buffer+probenecid (100 μl probenecid stock per 10 ml buffer), leaving 30 μL/well assay buffer. Wait at least 10-15 minutes. Compounds and agonist challenge additions are performed with the FLIPR. The 1st addition is for test compounds, which are added as 15 μL of 4×[concentration] of potentiator. The second 2nd addition is 15 μL of 4×[concentration] of agonist or challenge. This achieves 1× concentration of all compounds only after 2nd addition. The 1st and 2nd additions are performed separately using the FLIPR, which give 2 different data files. Compounds are pretreated at least 30 minutes before agonist addition,
# Results are analyzed by dividing the peak fluorescent value of the FLIPR response by the […] to achieve a ratio response. The ratios are then analyzed by curve fitting programs. […] Maximum values for dose response curves (forced fitting) are derived from standards on the plate.
# Compound Preparation and Glutamate Challenge:
# Compounds are delivered as 10 mM DMSO stocks or as powders, Powders are solubilized in DMSO at 10 mM (as solubility allows). Compounds are sonicated in a heated water bath (35-40° C.) for at least 20 minutes.
# T1 sequence (Q14416 19-872, species assumed): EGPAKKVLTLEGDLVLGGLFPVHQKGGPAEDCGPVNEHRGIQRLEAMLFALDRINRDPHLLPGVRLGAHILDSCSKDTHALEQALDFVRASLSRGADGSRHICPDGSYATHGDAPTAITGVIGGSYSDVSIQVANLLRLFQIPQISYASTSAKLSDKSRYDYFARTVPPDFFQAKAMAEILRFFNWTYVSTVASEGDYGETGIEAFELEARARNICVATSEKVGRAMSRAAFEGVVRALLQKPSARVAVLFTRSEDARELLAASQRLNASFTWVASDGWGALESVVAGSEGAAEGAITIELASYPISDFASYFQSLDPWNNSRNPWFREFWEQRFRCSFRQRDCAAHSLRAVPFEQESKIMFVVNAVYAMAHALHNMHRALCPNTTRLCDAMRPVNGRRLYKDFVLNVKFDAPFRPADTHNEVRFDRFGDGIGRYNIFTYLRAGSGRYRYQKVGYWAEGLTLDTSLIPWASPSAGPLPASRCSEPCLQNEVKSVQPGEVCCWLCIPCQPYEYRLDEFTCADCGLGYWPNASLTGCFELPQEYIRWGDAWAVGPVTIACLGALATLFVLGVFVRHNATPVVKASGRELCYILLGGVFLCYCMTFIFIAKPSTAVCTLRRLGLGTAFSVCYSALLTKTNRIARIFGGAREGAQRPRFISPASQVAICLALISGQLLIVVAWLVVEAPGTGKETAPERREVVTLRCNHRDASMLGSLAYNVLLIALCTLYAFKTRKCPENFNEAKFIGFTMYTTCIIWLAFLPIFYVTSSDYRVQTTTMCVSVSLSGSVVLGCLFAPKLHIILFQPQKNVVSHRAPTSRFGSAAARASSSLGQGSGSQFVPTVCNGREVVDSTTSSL
row,Compound,EC50 [nM]
1,"C[C@@H]1CN(Cc2nc3nccc4c3n2CCC4)CC[C@@H]1c1ccc(F)cc1F (relative stereo) [Example 127, 2-{[Cis-4-(2,4-difluorophenyl)-3-methylpiperidin-1-yl]methyl}-5,6-dihydro-4H-imidazo[4,5,1-ij]-1,7-naphthyridine]",47.1
2,"C[C@@H]1CN(Cc2nc3nccc4c3n2CCC4)CC[C@@H]1c1ccc(F)c(Cl)c1 (relative stereo) [Example 128, 2-{[Cis-4-(3-chloro-4-fluorophenyl)-3-methylpiperidin-1-yl]methyl}-5,6-dihydro-4H-imidazo[4,5,1-ij]-1,7-naphthyridine]",134
3,"C[C@@H]1CN(Cc2nc3nccc4c3n2CCC4)CC[C@@H]1c1ccc(Cl)cc1F (relative stereo) [Example 129, 2-{[Cis-4-(4-chloro-2-fluorophenyl)-3-methylpiperidin-1-yl]methyl}-5,6-dihydro-4H-imidazo[4,5,1-ij]-1,7-naphthyridine]",12.5
4,"COc1cc(F)ccc1[C@H]1CCN(Cc2nc3nccc4c3n2CCC4)C[C@H]1C (relative stereo) [Example 134, 2-{[Cis-4-(4-fluoro-2-methoxyphenyl)-3-methylpiperidin-1-yl]methyl}-5,6-dihydro-4H-imidazo[4,5,1-ij]-1,7-naphthyridine]",30.2
5,C[C@@H]1CN(Cc2nc3cnccc3n2C)CC[C@@H]1c1ccc(C(F)(F)F)cc1 (relative stereo) [compound 71],75
6,C[C@@H]1CN(Cc2nc3ncccc3n2C)CC[C@@H]1c1ccc(F)c(Cl)c1 (relative stereo) [compound 111],203
7,COc1cc(C(F)(F)F)ccc1[C@H]1CCN(Cc2nc3ncccc3n2C)C[C@H]1C (relative stereo) [compound 114],42.8
8,C[C@@H]1CN(Cc2nc3ncccc3n2C)CC[C@@H]1c1ccc(Cl)cc1F (relative stereo) [compound 115],19.5
9,C[C@@H]1CN(Cc2nc3cnccc3n2C)CC[C@@H]1c1ccc(Cl)cc1F (relative stereo) [compound 116],49.8
10,CCOc1ccc([C@H]2CCN(Cc3nc4ncccc4n3C)C[C@H]2C)cc1 (relative stereo) [compound 120],639
11,C[C@@H]1CN(Cc2nc3ncccc3n2C)CC[C@@H]1c1ccc(F)c(F)c1 (relative stereo) [compound 121],753
12,C[C@@H]1CN(Cc2nc3ncccc3n2C)CC[C@@H]1c1ccc(F)cc1F (relative stereo) [compound 124],118
13,C[C@@H]1CN(Cc2nc3cnccc3n2C)CC[C@@H]1c1ccc(F)cc1F (relative stereo) [compound 125],10300
14,COc1cc(F)ccc1[C@H]1CCN(Cc2nc3ncccc3n2C)C[C@H]1C (relative stereo) [compound 132],78.5
15,COc1cc(F)ccc1[C@H]1CCN(Cc2nc3cnccc3n2C)C[C@H]1C (relative stereo) [compound 133],53.7
16,C[C@@H]1CN(Cc2nc3cnccc3n2C)CC[C@@H]1c1ccc(OC(F)(F)F)cc1F (relative stereo) [compound 146],55.5
17,C[C@@H]1CN(Cc2nc3ncccc3n2C)CC[C@@H]1c1ccc(C(F)(F)F)c(F)c1 (relative stereo) [compound 147],41.3
18,C[C@@H]1CN(Cc2nc3cnccc3n2C)CC[C@@H]1c1ccc(C(F)(F)F)c(F)c1 (relative stereo) [compound 148],71.4
19,C[C@@H]1CN(Cc2nc3ncccc3n2C)CC[C@@H]1c1ccc(C(F)(F)F)cc1C(F)(F)F (relative stereo) [compound 149],24.8
20,C[C@@H]1CN(Cc2nc3cnccc3n2C)CC[C@@H]1c1ccc(C(F)(F)F)cc1C(F)(F)F (relative stereo) [compound 150],207
21,C[C@@H]1CN(Cc2nc3ncccc3n2C)CC[C@@H]1c1ccc(C(F)(F)F)cc1Cl (relative stereo) [compound 151],30
22,C[C@@H]1CN(Cc2nc3cnccc3n2C)CC[C@@H]1c1ccc(C(F)(F)F)cc1Cl (relative stereo) [compound 152],66.3
23,C[C@@H]1CN(Cc2nc3ncccc3n2C)CC[C@@H]1c1ccc(Cl)cc1Cl (relative stereo) [compound 155],22.9

# Second part, the compound after the results:
row,EC50 [nM],Compound
1,88.2,C[C@@H]1CN(Cc2nc3cnccc3n2C)CC[C@@H]1c1ccc(Cl)cc1Cl (relative stereo) [compound 156]
2,277,C[C@@H]1CN(Cc2nc3ncccc3n2C)CC[C@@H]1c1ccc(OC(F)(F)F)cc1 (relative stereo) [compound 157]
3,262,C[C@@H]1CN(Cc2nc3cnccc3n2C)CC[C@@H]1c1ccc(OC(F)(F)F)cc1 (relative stereo) [compound 158]
4,102,Cc1cc(Cl)ccc1[C@H]1CCN(Cc2nc3ncccc3n2C)C[C@H]1C (relative stereo) [compound 160]
5,393,Cc1cc(Cl)ccc1[C@H]1CCN(Cc2nc3cnccc3n2C)C[C@H]1C (relative stereo) [compound 161]
6,< 74.3,Cc1cc(OC(F)(F)F)ccc1[C@H]1CCN(Cc2nc3ncccc3n2C)C[C@H]1C (relative stereo) [compound 164]
7,514,Cc1cc(OC(F)(F)F)ccc1[C@H]1CCN(Cc2nc3cnccc3n2C)C[C@H]1C (relative stereo) [compound 165]
8,82.3,CC(C)Oc1ccc([C@H]2CCN(Cc3nc4ncccc4n3C)C[C@H]2C)c(F)c1 (relative stereo) [compound 166]
9,> 172,CC(C)Oc1ccc([C@H]2CCN(Cc3nc4cnccc4n3C)C[C@H]2C)c(F)c1 (relative stereo) [compound 167]
10,174,CC(C)Oc1ccc([C@H]2CCN(Cc3nc4ncccc4n3C)C[C@H]2C)c(Cl)c1 (relative stereo) [compound 169]
11,284,CC(C)Oc1ccc([C@H]2CCN(Cc3nc4cnccc4n3C)C[C@H]2C)c(Cl)c1 (relative stereo) [compound 170]
12,214,COc1ccc([C@H]2CCN(Cc3nc4ncccc4n3C)C[C@H]2C)c(C(F)(F)F)c1 (relative stereo) [compound 173]
13,> 1690,COc1ccc([C@H]2CCN(Cc3nc4cnccc4n3C)C[C@H]2C)c(C(F)(F)F)c1 (relative stereo) [compound 174]
14,429,C[C@@H]1CN(Cc2nc3ncccc3n2C)CC[C@@H]1c1ccc(OC(F)F)cc1 (relative stereo) [compound 177]
15,> 1350,C[C@@H]1CN(Cc2nc3cnccc3n2C)CC[C@@H]1c1ccc(OC(F)F)cc1 (relative stereo) [compound 178]
16,381,C[C@@H]1CN(Cc2nc3ncccc3n2C)CC[C@@H]1c1cc(F)c(F)cc1F (relative stereo) [compound 179]
17,762,C[C@@H]1CN(Cc2nc3cnccc3n2C)CC[C@@H]1c1cc(F)c(F)cc1F (relative stereo) [compound 180]
18,1090,CC(C)Oc1ccc([C@H]2CCN(Cc3nc4cnccc4n3C)C[C@H]2C)cc1F (relative stereo) [compound 181]
19,577,CC(C)Oc1ccc([C@H]2CCN(Cc3nc4ncccc4n3C)C[C@H]2C)cc1F (relative stereo) [compound 182]
20,63,C[C@@H]1CN(Cc2nc3ncccc3n2C)CC[C@@H]1c1ccc(OC(F)(F)F)cc1Cl (relative stereo) [compound 187]

# Same assay, conditions: HEK cells stably transfected with mGluR2 and Gα15; FLIPR (Fluo-4); potentiation of an EC10 to EC20 concentration of glutamate; Table 9
row,EC50 [nM],Compound
1,47.1,"C[C@@H]1CN(Cc2nc3nccc4c3n2CCC4)CC[C@@H]1c1ccc(F)cc1F (relative stereo) [Example 127, 2-{[Cis-4-(2,4-difluorophenyl)-3-methylpiperidin-1-yl]methyl}-5,6-dihydro-4H-imidazo[4,5,1-ij]-1,7-naphthyridine]"
2,134,"C[C@@H]1CN(Cc2nc3nccc4c3n2CCC4)CC[C@@H]1c1ccc(F)c(Cl)c1 (relative stereo) [Example 128, 2-{[Cis-4-(3-chloro-4-fluorophenyl)-3-methylpiperidin-1-yl]methyl}-5,6-dihydro-4H-imidazo[4,5,1-ij]-1,7-naphthyridine]"
3,12.5,"C[C@@H]1CN(Cc2nc3nccc4c3n2CCC4)CC[C@@H]1c1ccc(Cl)cc1F (relative stereo) [Example 129, 2-{[Cis-4-(4-chloro-2-fluorophenyl)-3-methylpiperidin-1-yl]methyl}-5,6-dihydro-4H-imidazo[4,5,1-ij]-1,7-naphthyridine]"
4,30.2,"COc1cc(F)ccc1[C@H]1CCN(Cc2nc3nccc4c3n2CCC4)C[C@H]1C (relative stereo) [Example 134, 2-{[Cis-4-(4-fluoro-2-methoxyphenyl)-3-methylpiperidin-1-yl]methyl}-5,6-dihydro-4H-imidazo[4,5,1-ij]-1,7-naphthyridine]"
